Data from patent US8188085B2, “Antifungal agents” (Merck Sharp & Dohme Corp., priority 2008, dated 2012).

Target: glucan synthase (GS) prepared from Candida albicans MY1055 (Candida albicans, UniProt O13428)
Test: Glucan synthase inhibition (polymerization assay, 96-well)
Assay type: biochemical
Conditions: GS from C. albicans MY1055; 60 min incubation at 22° C.; read-out: Candida Albicans GS IC50 (converted)
Procedure, shortened: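 Partially purified glucan synthase from C. albicans MY1055 membranes incorporated 0.5 mM ³H-UDPG with 25 μM GTP-γ-S, HEPES pH 7.5, over 60 min at 22 °C. TCA-precipitated glucan was counted by scintillation. IC50 (ng/mL) came from sigmoidal fits of duplicate 3-fold dilution series.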

glucan synthase (GS) prepared from Candida albicans MY1055, sequence (O13428 1-1897): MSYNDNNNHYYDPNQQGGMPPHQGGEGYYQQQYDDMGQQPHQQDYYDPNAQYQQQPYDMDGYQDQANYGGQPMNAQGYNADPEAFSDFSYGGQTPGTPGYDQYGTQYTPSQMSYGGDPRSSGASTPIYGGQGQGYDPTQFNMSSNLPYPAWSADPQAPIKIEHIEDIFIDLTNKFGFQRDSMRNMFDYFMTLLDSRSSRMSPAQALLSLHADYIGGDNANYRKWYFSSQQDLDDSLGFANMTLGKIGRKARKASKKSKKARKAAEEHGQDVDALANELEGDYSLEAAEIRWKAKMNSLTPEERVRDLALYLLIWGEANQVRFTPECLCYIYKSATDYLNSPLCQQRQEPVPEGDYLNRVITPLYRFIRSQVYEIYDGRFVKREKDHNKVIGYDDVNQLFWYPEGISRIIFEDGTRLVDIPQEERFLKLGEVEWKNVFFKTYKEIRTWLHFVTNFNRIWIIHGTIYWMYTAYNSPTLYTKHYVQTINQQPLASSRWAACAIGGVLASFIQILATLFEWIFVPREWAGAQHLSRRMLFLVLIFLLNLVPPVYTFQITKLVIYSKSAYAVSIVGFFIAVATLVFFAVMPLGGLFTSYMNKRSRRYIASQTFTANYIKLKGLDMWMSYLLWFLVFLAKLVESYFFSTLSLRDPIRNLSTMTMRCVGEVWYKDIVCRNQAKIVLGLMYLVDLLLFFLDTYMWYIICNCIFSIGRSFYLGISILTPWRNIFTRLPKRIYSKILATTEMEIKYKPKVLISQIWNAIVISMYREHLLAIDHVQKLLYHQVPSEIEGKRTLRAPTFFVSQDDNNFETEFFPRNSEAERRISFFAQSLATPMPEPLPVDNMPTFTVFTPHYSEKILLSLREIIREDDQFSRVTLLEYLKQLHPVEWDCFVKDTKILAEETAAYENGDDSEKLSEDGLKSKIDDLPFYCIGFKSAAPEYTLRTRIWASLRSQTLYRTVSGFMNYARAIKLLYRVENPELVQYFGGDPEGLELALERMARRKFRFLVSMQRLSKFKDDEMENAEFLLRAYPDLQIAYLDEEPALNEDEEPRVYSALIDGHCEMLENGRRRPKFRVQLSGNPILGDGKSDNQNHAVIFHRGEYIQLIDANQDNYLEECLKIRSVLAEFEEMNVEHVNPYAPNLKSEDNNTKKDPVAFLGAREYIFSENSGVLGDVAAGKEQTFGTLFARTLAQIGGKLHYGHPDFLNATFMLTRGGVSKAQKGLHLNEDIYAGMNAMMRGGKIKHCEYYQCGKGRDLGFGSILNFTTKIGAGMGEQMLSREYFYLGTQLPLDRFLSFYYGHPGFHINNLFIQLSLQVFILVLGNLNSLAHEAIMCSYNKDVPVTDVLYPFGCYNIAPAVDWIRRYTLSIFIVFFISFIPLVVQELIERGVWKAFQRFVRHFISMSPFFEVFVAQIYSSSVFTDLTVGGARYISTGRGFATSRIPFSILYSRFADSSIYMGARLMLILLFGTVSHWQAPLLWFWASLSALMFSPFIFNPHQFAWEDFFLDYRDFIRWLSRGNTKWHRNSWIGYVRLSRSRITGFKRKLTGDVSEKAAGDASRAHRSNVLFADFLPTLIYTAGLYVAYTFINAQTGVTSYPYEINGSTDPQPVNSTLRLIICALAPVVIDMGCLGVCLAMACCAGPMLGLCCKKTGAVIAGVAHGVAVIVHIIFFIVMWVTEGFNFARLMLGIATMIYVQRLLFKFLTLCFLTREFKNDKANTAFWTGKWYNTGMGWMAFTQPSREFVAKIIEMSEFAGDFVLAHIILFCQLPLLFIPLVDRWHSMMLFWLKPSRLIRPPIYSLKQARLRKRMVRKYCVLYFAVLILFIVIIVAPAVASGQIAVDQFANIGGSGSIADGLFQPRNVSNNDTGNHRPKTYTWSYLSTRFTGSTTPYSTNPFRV

Row | Compound | IC50
1 | CNC1(CO[C@H]2[C@H](n3ncnc3C(N)=O)C[C@@]34COC[C@]2(C)[C@@H]3CC[C@H]2C4=CC[C@@]3(C)[C@H](C(=O)O)[C@@](C)([C@H](C)C(C)C)CC[C@]23C)CCCCC1 [Example 107, (1S,4aR,6aS,7R,8R,10aR,10bR,12aR,14R,15R)-14-[5-(aminocarbonyl)-1H-1,2,4-triazol-1-yl]-8-[(1R)-1,2-dimethylpropyl]-15-[[1-(methylamino)cyclohexyl]methoxy]-1,6,6a,7,8,9,10,10a,10b,11,12,12a-dodecahydro-1,6a,8,10a-tetramethyl-4H-1,4a-propano-2H-phenanthro[1,2-c]pyran-7-carboxylic acid] | 19.8 nM
2 | CC(C)[C@@H](C)[C@@]1(C)CC[C@]2(C)[C@H]3CC[C@@H]4[C@@]5(COC[C@@]4(C)[C@@H](OC[C@](C)(N)C(C)C)[C@H](n4ncnc4C(=O)NCC(F)(F)F)C5)C3=CC[C@@]2(C)[C@@H]1C(=O)O [Example 80, (1S,4aR,6aS,7R,8R,10aR,10bR,12aR,14R,15R)-15-[[(2R)-2-amino-2,3-dimethylbutyl]oxy]-8-[(1R)-1,2-dimethylpropyl]-14-[5-[[(2,2,2-trifluoroethyl)amino]carbonyl]-1H-1,2,4-triazol-1-yl]-1,6,6a,7,8,9,10,10a,10b,11,12,12a-dodecahydro-1,6a,8,10a-tetramethyl-4H-1,4a-propano-2H-phenanthro[1,2-c]pyran-7-carboxylic acid] | 10.5 nM
3 | CC(C)[C@@H](C)[C@@]1(C)CC[C@]2(C)[C@H]3CC[C@@H]4[C@@]5(COC[C@@]4(C)[C@@H](OC[C@](C)(N)C(C)C)[C@H](n4nc(Br)nc4[N+](=O)[O-])C5)C3=CC[C@@]2(C)[C@@H]1C(=O)O (single isomer, unassigned) [Example 29B] | 81.3 nM
4 | CC(C)NC(=O)c1ncn([C@@H]2C[C@@]34COC[C@](C)([C@@H]3CC[C@H]3C4=CC[C@@]4(C)[C@H](C(=O)O)[C@@](C)([C@H](C)C(C)C)CC[C@]34C)[C@H]2OC[C@](C)(N)C(C)C)n1 (single isomer, unassigned) [Example 37B] | 60.8 nM
5 | CN[C@@](C)(CO[C@H]1[C@H](n2ncnc2C(=O)NC(C)C)C[C@@]23COC[C@]1(C)[C@@H]2CC[C@H]1C3=CC[C@@]2(C)[C@H](C(=O)O)[C@@](C)([C@H](C)C(C)C)CC[C@]12C)C(C)C [Example 38, (1S,4aR,6aS,7R,8R,10aR,10bR,12aR,14R,15R)-15-[[(2R)-2,3-dimethyl-2-(methylamino)butyl]oxy]-8-[(1R)-1,2-dimethylpropyl]-14-[5-[[(1-methylethyl)amino]carbonyl]-1H-1,2,4-triazol-1-yl]-1,6,6a,7,8,9,10,10a,10b,11,12,12a-dodecahydro-1,6a,8,10a-tetramethyl-4H-1,4a-propano-2H-phenanthro[1,2-c]pyran-7-carboxylic acid] | 17.6 nM
6 | CC(C)[C@@H](C)[C@@]1(C)CC[C@]2(C)[C@H]3CC[C@@H]4[C@@]5(COC[C@@]4(C)[C@@H](OC[C@H](N)C(C)(C)C)[C@H](n4ncnc4C(N)=O)C5)C3=CC[C@@]2(C)[C@@H]1C(=O)O [Example 97, (1S,4aR,6aS,7R,8R,10aR,10bR,12aR,14R,15R)-14-[5-(aminocarbonyl)-1H-1,2,4-triazol-1-yl]-15-[[(2R)-2-amino-3,3-dimethylbutyl]oxy]-8-[(1R)-1,2-dimethylpropyl]-1,6,6a,7,8,9,10,10a,10b,11,12,12a-dodecahydro-1,6a,8,10a-tetramethyl-4H-1,4a-propano-2H-phenanthro[1,2-c]pyran-7-carboxylic acid] | 11.7 nM
7 | CC(C)[C@@H](C)[C@@]1(C)CC[C@]2(C)[C@H]3CC[C@@H]4[C@@]5(COC[C@@]4(C)[C@@H](OC[C@](C)(N)C(C)C)[C@H](n4nc(N)nc4-c4ccccc4)C5)C3=CC[C@@]2(C)[C@@H]1C(=O)O [Example 36, (1S,4aR,6aS,7R,8R,10aR,10bR,12aR,14R,15R)-15-[[(2R)-2-amino-2,3-dimethylbutyl]oxy]-14-(3-amino-5-phenyl-1H-1,2,4-triazol-1-yl)-8-[(1R)-1,2-dimethylpropyl]-1,6,6a,7,8,9,10,10a,10b,11,12,12a-dodecahydro-1,6a,8,10a-tetramethyl-4H-1,4a-propano-2H-phenanthro[1,2-c]pyran-7-carboxylic acid] | 13.7 nM
8 | CC(C)[C@@H](C)[C@@]1(C)CC[C@]2(C)[C@H]3CC[C@@H]4[C@@]5(COC[C@@]4(C)[C@@H](OC[C@](C)(N)C(C)C)[C@H](n4nc(N)nc4C4CC4)C5)C3=CC[C@@]2(C)[C@@H]1C(=O)O (single isomer, unassigned) [Example 32A] | 4.32 nM
9 | CCCNS(=O)(=O)c1ncnn1[C@@H]1C[C@@]23COC[C@](C)([C@@H]2CC[C@H]2C3=CC[C@@]3(C)[C@H](C(=O)O)[C@@](C)([C@H](C)C(C)C)CC[C@]23C)[C@H]1OCC(N)(CC)CC [Example 126, (1S,4aR,6aS,7R,8R,10aR,10bR,12aR,14R,15R)-15-(2-amino-2-ethylbutoxy)-8-[(1R)-1,2-dimethylpropyl]-14-[5-[(propylamino)sulfonyl]-1H-1,2,4-triazol-1-yl]-1,6,6a,7,8,9,10,10a,10b,11,12,12a-dodecahydro-1,6a,8,10a-tetramethyl-4H-1,4a-propano-2H-phenanthro[1,2-c]pyran-7-carboxylic acid] | 34.2 nM
10 | CN[C@@](C)(CO[C@H]1[C@H](n2ncnc2C(=O)NC2CC2)C[C@@]23COC[C@]1(C)[C@@H]2CC[C@H]1C3=CC[C@@]2(C)[C@H](C(=O)O)[C@@](C)([C@H](C)C(C)C)CC[C@]12C)C(C)C [Example 64, (1S,4aR,6aS,7R,8R,10aR,10bR,12aR,14R,15R)-14-[5-[(cyclopropylamino)carbonyl]-1H-1,2,4-triazol-1-yl]-15-[[(2R)-2,3-dimethyl-2-(methylamino)butyl]oxy]-8-[(1R)-1,2-dimethylpropyl]-1,6,6a,7,8,9,10,10a,10b,11,12,12a-dodecahydro-1,6a,8,10a-tetramethyl-4H-1,4a-propano-2H-phenanthro[1,2-c]pyran-7-carboxylic acid] | 13.6 nM

Now from value to compound:

Row | IC50 | Compound
11 | 54.9 nM | CC(C)[C@@H](C)[C@@]1(C)CC[C@]2(C)[C@H]3CC[C@@H]4[C@@]5(COC[C@@]4(C)[C@@H](OC[C@](C)(N)C(C)C)[C@H](n4cccn4)C5)C3=CC[C@@]2(C)[C@@H]1C(=O)O [Example 291, (1S,4aR,6aS,7R,8R,10aR,10bR,12aR,14R,15R)-15-[[(2R)-2-amino-2,3-dimethylbutyl]oxy]-8-[(1R)-1,2-dimethylpropyl]-14-(1H-pyrazol-1-yl)-1,6,6a,7,8,9,10,10a,10b,11,12,12a-dodecahydro-1,6a,8,10a-tetramethyl-4H-1,4a-propano-2H-phenanthro[1,2-c]pyran-7-carboxylic acid]
12 | 3.88 nM | CC(C)[C@@H](C)[C@@]1(C)CC[C@]2(C)[C@H]3CC[C@@H]4[C@@]5(COC[C@@]4(C)[C@@H](OC[C@](C)(N)C(C)(C)C)[C@H](n4ncnc4-c4ccc(C(N)=O)nc4)C5)C3=CC[C@@]2(C)[C@@H]1C(=O)O [Example 221, (1S,4aR,6aS,7R,8R,10aR,10bR,12aR,14R,15R)-14-[5-[6-(aminocarbonyl)-3-pyridinyl]-1H-1,2,4-triazol-1-yl]-15-[[(2R)-2-amino-2,3,3-trimethylbutyl]oxy]-8-[(1R)-1,2-dimethylpropyl]-1,6,6a,7,8,9,10,10a,10b,11,12,12a-dodecahydro-1,6a,8,10a-tetramethyl-4H-1,4a-propano-2H-phenanthro[1,2-c]pyran-7-carboxylic acid]
13 | 4.41 nM | CCCc1ncnn1[C@@H]1C[C@@]23COC[C@](C)([C@@H]2CC[C@H]2C3=CC[C@@]3(C)[C@H](C(=O)O)[C@@](C)([C@H](C)C(C)C)CC[C@]23C)[C@H]1OC[C@](C)(N)C(C)C [Example 169, (1S,4aR,6aS,7R,8R,10aR,10bR,12aR,14R,15R)-15-[[(2R)-2-amino-2,3-dimethylbutyl]oxy]-8-[(1R)-1,2-dimethylpropyl]-14-(5-propyl-1H-1,2,4-triazol-1-yl)-1,6,6a,7,8,9,10,10a,10b,11,12,12a-dodecahydro-1,6a,8,10a-tetramethyl-4H-1,4a-propano-2H-phenanthro[1,2-c]pyran-7-carboxylic acid]
14 | 61 nM | CC(C)[C@@H](C)[C@@]1(C)CC[C@]2(C)[C@H]3CC[C@@H]4[C@@]5(COC[C@@]4(C)[C@@H](OC[C@](C)(N)C(C)C)[C@H](n4cc(Cl)cn4)C5)C3=CC[C@@]2(C)[C@@H]1C(=O)O [Example 295, (1S,4aR,6aS,7R,8R,10aR,10bR,12aR,14R,15R)-15-[[(2R)-2-amino-2,3-dimethylbutyl]oxy]-14-(4-chloro-1H-pyrazol-1-yl)-8-[(1R)-1,2-dimethylpropyl]-1,6,6a,7,8,9,10,10a,10b,11,12,12a-dodecahydro-1,6a,8,10a-tetramethyl-4H-1,4a-propano-2H-phenanthro[1,2-c]pyran-7-carboxylic acid]
15 | 2.52 nM | COC(=O)N1CCC(c2ncnn2[C@@H]2C[C@@]34COC[C@](C)([C@@H]3CC[C@H]3C4=CC[C@@]4(C)[C@H](C(=O)O)[C@@](C)([C@H](C)C(C)C)CC[C@]34C)[C@H]2OC[C@](C)(N)C(C)(C)C)CC1 [Example 276, (1S,4aR,6aS,7R,8R,10aR,10bR,12aR,14R,1SR)-15-[[(2R)-2-amino-2,3,3-trimethylbutyl]oxy]-8-[(1R)-1,2-dimethylpropyl]-14-[5-[1-(methoxycarbonyl)-4-piperidinyl]-1H-1,2,4-triazol-1-yl]-1,6,6a,7,8,9,10,10a,10b,11,12,12a-dodecahydro-1,6a,8,10a-tetramethyl-4H-1,4a-propano-2H-phenanthro[1,2-c]pyran-7-carboxylic acid]
16 | 2.74 nM | CN[C@@](C)(CO[C@H]1[C@H](n2ncnc2-c2ccccc2)C[C@@]23COC[C@]1(C)[C@@H]2CC[C@H]1C3=CC[C@@]2(C)[C@H](C(=O)O)[C@@](C)([C@H](C)C(C)C)CC[C@]12C)C(C)C [Example 150, (1S,4aR,6aS,7R,8R,10aR,10bR,12aR,14R,15R)-15-[[(2R)-2,3-dimethyl-2-(methylamino)butyl]oxy]-8-[(1R)-1,2-dimethylpropyl]-14-(5-phenyl-1H-1,2,4-triazol-1-yl)-1,6,6a,7,8,9,10,10a,10b,11,12,12a-dodecahydro-1,6a,8,10a-tetramethyl-4H-1,4a-propano-2H-phenanthro[1,2-c]pyran-7-carboxylic acid]
